Data reported in paper PMC11628400 (Nature Cell Biology, 2024).

How the values were obtained:
NAT10 [1] = biological target: T1, NAT10 (Homo sapiens, UniProt Q9H0A0); assay: DARTS; type: cell-based
T1 sequence (Q9H0A0 1-1025): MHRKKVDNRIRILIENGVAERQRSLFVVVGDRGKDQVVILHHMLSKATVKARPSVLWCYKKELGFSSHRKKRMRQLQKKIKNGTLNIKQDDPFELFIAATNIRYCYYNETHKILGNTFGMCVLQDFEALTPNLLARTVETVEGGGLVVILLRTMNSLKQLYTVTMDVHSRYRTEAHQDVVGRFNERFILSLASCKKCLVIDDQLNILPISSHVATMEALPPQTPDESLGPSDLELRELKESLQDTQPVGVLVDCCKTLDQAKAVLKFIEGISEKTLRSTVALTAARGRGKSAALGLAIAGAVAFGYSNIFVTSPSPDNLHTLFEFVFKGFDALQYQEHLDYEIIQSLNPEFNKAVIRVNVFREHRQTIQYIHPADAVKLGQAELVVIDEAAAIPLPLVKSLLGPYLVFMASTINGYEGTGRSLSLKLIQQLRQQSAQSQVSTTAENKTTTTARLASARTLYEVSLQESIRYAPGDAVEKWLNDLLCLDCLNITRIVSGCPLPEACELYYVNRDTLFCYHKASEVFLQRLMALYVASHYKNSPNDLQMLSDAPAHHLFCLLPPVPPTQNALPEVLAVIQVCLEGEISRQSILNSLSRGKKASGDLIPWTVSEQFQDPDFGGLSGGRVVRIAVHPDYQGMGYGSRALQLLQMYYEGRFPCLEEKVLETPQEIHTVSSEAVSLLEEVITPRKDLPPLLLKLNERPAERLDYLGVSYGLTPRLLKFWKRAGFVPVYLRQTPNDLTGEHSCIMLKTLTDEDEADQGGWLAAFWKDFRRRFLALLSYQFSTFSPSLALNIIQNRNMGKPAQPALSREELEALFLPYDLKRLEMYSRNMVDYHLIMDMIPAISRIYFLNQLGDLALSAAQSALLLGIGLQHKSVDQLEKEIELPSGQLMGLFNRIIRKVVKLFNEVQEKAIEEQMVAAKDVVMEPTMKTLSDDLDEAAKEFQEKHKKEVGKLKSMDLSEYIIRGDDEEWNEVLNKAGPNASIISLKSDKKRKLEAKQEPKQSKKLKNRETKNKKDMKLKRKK

NAT10 [2] = biological target: T1, NAT10; assay: DARTS in MOLM13 lysate; type: cell-based

| Structure (SMILES) | DARTS (protection from pronase digestion) in MOLM13 lysate (NAT10 [1]) | DARTS in MOLM13 lysate; CETSA in MonoMac6 cells (NAT10 [2]) |
| --- | --- | --- |
| Nc1nc(F)nc2c1ncn2[C@@H]1O[C@H](COP(=O)(O)OP(=O)(O)OP(=O)(O)O)[C@@H](O)[C@@H]1O [F-ara-ATP, fludarabine triphosphate] | The binding of fludarabine and F-ara-ATP with NAT10 were confirmed by drug affinity responsive target stability assay (DARTS) | – |
| Nc1nc(F)nc2c1ncn2[C@@H]1O[C@H](COP(=O)(O)O)[C@@H](O)[C@@H]1O [P-F-ara-A, fludarabine (P-F-ara-A)] | DARTS assays evaluating the efficacy of Remodelin, P-F-ara-A and F-ara-ATP on protecting NAT10 protein against pronase digestion | – |
| N#Cc1ccc(-c2csc(NN=C3CCCC3)n2)cc1 [Remodelin] | – | Thermal shift curves of NAT10 from CETSA assays in MonoMac6 pretreated with fludarabine (F-ara-A), Remodelin or dimethylsulfoxide (DMSO) |
